From patent US7704701B2, “Diagnosis of prostate cancer with SPAS-1 cancer antigen” (The Regents of the University of California, priority 2000, dated 2010)

What was measured:
CD8+ T cells [1] = assay: IFN-γ production (ELISA) by FL-9-primed CD8+ T cells in response to titrated peptide pulsed onto THP-1 cells; type: cell-based, human; settings: fourteen days after first stimulation
Method: FIG. 24. […] A) Monocyte-derived DCs from HLA-A2+ healthy donors were pulsed with HuSPAS-1 peptide 4 (FL-9) and then incubated with autologous PBMC. Following another in vitro restimulation, T cell cultures were then assessed for their capacity to produce IFN-γ in response to titrated doses of peptide 4 (FL-9), pulsed onto the HLA-A2 expressing cell line THP-1. IFN-γ was assessed by ELISA on the cell supernatants in triplicate wells. […] (100,000 CD8+ T cells/well and 50,000 THP-1 cells/well). […] Responsiveness of the FL-9-reactive CD8+ T cell line was assessed by co-culturing 100,000 CD8+ T cells with titrated numbers of infected THP-1 cells.
Monocyte-derived DCs from HLA-A2+ healthy donors were pulsed with HuSPAS-1 peptide 4 (FL-9) and then incubated with autologous PBMC. Following another in vitro restimulation, T cell cultures were then assessed for their capacity to produce IFN-γ in response to titrated doses of peptide 4 (FL-9), pulsed onto the HLA-A2 expressing cell line THP-1. IFN-γ was assessed by ELISA on the cell supernatants in triplicate wells. […] Responsiveness of the FL-9-reactive CD8+ T cell line was assessed by co-culturing 100,000 CD8+ T cells with titrated numbers of infected THP-1 cells.

CD8+ T cells [2] = assay: IFN-γ production (ELISA) by in vitro primed T cell cultures in response to peptide pulsed onto A221 cells; type: cell-based, human; settings: HLA-A2+ healthy donors
Source text: FIG. 21: Strategy for the generation of human cytotoxic T lymphocytes (CTLs) specific for candidate human SPAS-1 peptides: In order to determine whether CD8+ T cells specific for human SPAS-1 peptides are present in the periphery of healthy individuals we used an in vitro priming strategy. Briefly, immature Myeloid Dendritic Cells (mDCs) were generated from culturing monocytes isolated from Peripheral Blood Mononuclear Cells (PBMCs) of a healthy HLA-A2+ donor for 5 days in GM-CSF and IL-4.
Following another in vitro restimulation, T cell cultures were assessed for their capacity to produce IFN-γ in response to the corresponding peptide, pulsed onto the HLA-A2 expressing cell line A221. IFN-γ was assessed by ELISA on the cell supernatants in triplicate wells.
In order to determine whether CD8+ T cells specific for human SPAS-1 peptides are present in the periphery of healthy individuals we used an in vitro priming strategy. Briefly, immature Myeloid Dendritic Cells (mDCs) were generated from culturing monocytes isolated from Peripheral Blood Mononuclear Cells (PBMCs) of a healthy HLA-A2+ donor for 5 days in GM-CSF and IL-4.

Sequence	IFN-γ production in response to increasing doses of peptide (CD8+ T cells [1])	immunogenicity: IFN-γ production in response to the corresponding peptide (CD8+ T cells [2])
LLADELITV (H. sapiens) [P1]	not	–
FLTPLRNFL (H. sapiens) [P4]	specifically produced IFN-γ	Immunogenic
